Reference: patent publication US12479830B2, “Homopiperazinyl and homopiperidinyl quinazolin-4(3H)-one derivatives having multimodal activity against pain” (ESTEVE PHARMACEUTICALS, S.A., priority 2019, dated 2025)

Columns and labels:
[1] = target: Human α2δ-1 subunit of Cav2.2 calcium channel (Homo sapiens, UniProt P54289); assay: Human α2δ-1 subunit of Cav2.2 calcium channel assay ([3H]-gabapentin binding); settings: binding to the α2δ-1 subunit of voltage-gated calcium channels, expressed as Ki class; + also covers inhibition between 1% and 50%
Chain of Human α2δ-1 subunit of Cav2.2 calcium channel (P54289 25-1103): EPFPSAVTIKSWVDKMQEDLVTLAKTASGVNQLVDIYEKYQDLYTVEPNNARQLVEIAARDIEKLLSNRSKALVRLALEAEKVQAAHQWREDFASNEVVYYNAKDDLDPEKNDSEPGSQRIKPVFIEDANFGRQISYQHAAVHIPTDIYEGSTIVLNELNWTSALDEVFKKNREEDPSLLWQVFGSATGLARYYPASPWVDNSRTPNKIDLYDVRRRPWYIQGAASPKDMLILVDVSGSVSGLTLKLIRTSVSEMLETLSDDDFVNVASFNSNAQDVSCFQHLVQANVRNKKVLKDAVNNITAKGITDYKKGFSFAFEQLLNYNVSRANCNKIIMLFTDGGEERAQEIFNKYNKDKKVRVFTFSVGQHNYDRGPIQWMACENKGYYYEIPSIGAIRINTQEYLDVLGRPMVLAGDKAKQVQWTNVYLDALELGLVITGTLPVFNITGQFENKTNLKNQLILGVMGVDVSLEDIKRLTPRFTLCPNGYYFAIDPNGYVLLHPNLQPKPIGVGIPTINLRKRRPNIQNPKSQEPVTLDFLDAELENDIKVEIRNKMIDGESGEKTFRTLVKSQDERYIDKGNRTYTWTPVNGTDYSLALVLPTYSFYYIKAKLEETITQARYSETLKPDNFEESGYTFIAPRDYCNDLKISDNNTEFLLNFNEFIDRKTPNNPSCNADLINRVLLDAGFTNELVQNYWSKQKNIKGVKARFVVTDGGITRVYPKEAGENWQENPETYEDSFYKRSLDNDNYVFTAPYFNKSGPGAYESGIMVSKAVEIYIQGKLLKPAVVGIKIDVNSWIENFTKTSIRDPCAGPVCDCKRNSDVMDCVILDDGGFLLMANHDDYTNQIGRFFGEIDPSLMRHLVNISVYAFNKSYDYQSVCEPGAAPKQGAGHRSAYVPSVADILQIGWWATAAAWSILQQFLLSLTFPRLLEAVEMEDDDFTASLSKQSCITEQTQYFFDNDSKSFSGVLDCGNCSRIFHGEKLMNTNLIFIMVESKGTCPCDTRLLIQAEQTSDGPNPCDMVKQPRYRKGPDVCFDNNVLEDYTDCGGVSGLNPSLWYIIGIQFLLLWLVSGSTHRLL
Procedure, shortened: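 Human α2δ-1 enriched membranes (2.5 μg) incubated 60 min at 27° C. with 15 nM [3H]-gabapentin in 10 mM Hepes-KOH pH 7.4; non-specific binding with 10 μM pregabalin. Filtration binding; % inhibition at 1 or 10 μM, or Ki from five concentrations.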

Human σ1 receptor = target: T1, Human σ1 receptor (Homo sapiens, UniProt Q99720); assay: Human σ1 receptor radioligand assay ([3H](+)-pentazocine binding); settings: binding to the σ1 receptor, expressed as Ki class; + also covers inhibition between 1% and 50%
T1 construct: expressed in transfected cells; host or cells: HEK-293
T1 sequence (Q99720 whole entry): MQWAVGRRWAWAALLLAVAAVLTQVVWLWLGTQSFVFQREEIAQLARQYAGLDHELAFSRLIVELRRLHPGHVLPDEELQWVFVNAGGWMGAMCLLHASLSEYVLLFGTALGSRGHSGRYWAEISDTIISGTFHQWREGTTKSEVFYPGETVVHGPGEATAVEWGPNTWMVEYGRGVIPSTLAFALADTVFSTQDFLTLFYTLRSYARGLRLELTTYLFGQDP
Procedure, shortened: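 Membranes (7 μg) were incubated with 5 nM [3H](+)-pentazocine in 50 mM Tris-HCl pH 8 for 120 min at 37° C. Non-specific binding was defined with 10 μM haloperidol. Values are % inhibition at 1 or 10 μM or Ki from five concentrations, read by filtration and scintillation counting.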

In the case of `CCC[C@H](c1nc2cc(F)c(Br)cc2c(=O)n1CC)N1CCN(C)C[C@H](C)C1` [Example 127, 6-Bromo-2-((R)-1-((S)-4,6-dimethyl-1,4-diazepan-1-yl)butyl)-3-ethyl-7-fluoroquinazolin-4(3H)-one], the Ki [1] is reported as < 500 nM and the Ki (Human σ1 receptor) is reported as 500 to 1000 nM.

In the case of `CCC[C@@H](c1nc2cc(F)c(Br)cc2c(=O)n1CC)N1CCN(C)C[C@H](C)C1` [Example 128, 6-bromo-2-((S)-1-((S)-4,6-dimethyl-1,4-diazepan-1-yl)butyl)-3-ethyl-7-fluoroquinazolin-4(3H)-one], the Ki [1] is reported as > 5000 nM and the Ki (Human σ1 receptor) is reported as > 1000 nM.

With `CCC[C@@H](c1nc2cc(F)c(Br)cc2c(=O)n1CC)N1CCN(C)C[C@@H](C)C1` [Example 129, 6-bromo-2-((S)-1-((R)-4,6-dimethyl-1,4-diazepan-1-yl)butyl)-3-ethyl-7-fluoroquinazolin-4(3H)-one] the Ki [1] was 500 to 5000 nM and the Ki (Human σ1 receptor) was > 1000 nM.

In the case of `CCC[C@H](c1nc2cc(F)c(Br)cc2c(=O)n1CC)N1CCN(C)C[C@@H](C)C1` [Example 130, 6-bromo-2-((R)-1-((R)-4,6-dimethyl-1,4-diazepan-1-yl)butyl)-3-ethyl-7-fluoroquinazolin-4 (3H)-one], the Ki [1] is reported as < 500 nM and the Ki (Human σ1 receptor) is reported as 500 to 1000 nM.

In the case of `CCC[C@H](c1nc2cc(Cl)c(Cl)cc2c(=O)n1CC)N1CCN(C)C[C@H](C)C1` [Example 131, 6,7-Dichloro-2-((R)-1-((S)-4,6-dimethyl-1,4-diazepan-1-yl)butyl)-3-ethylquinazolin-4(3H)-one], the Ki [1] is reported as < 500 nM and the Ki (Human σ1 receptor) is reported as < 500 nM.

In the case of `CCC[C@H](c1nc2cc(Cl)c(Cl)cc2c(=O)n1CC)N1CCN(C)C[C@@H](C)C1` [Example 132, 6,7-dichloro-2-((R)-1-((R)-4,6-dimethyl-1,4-diazepan-1-yl)butyl)-3-ethylquinazolin-4(3H)-one], the Ki [1] is reported as < 500 nM and the Ki (Human σ1 receptor) is reported as < 500 nM.

In the case of `CCC[C@@H](c1nc2cc(Cl)c(Cl)cc2c(=O)n1CC)N1CCN(C)C[C@H](C)C1` [Example 133, 6,7-dichloro-2-((S)-1-((S)-4,6-dimethyl-1,4-diazepan-1-yl)butyl)-3-ethylquinazolin-4(3H)-one], the Ki [1] is reported as > 5000 nM and the Ki (Human σ1 receptor) is reported as > 1000 nM.

In the case of `CCC[C@@H](c1nc2cc(Cl)c(Cl)cc2c(=O)n1CC)N1CCN(C)C[C@@H](C)C1` [Example 134, 6,7-dichloro-2-((S)-1-((R)-4,6-dimethyl-1,4-diazepan-1-yl)butyl)-3-ethylquinazolin-4(3H)-one], the Ki [1] is reported as > 5000 nM and the Ki (Human σ1 receptor) is reported as 500 to 1000 nM.

`CCC[C@H](c1nc2cc(F)c(Cl)cc2c(=O)n1CC)N1CCN(C)C[C@H](C)C1` [Example 135, 6-Chloro-2-((R)-1-((S)-4,6-dimethyl-1,4-diazepan-1-yl)butyl)-3-ethyl-7-fluoroquinazolin-4(3H)-one] was tested, and the Ki [1] was < 500 nM and the Ki (Human σ1 receptor) was < 500 nM.

For `CCC[C@H](c1nc2cc(F)c(Cl)cc2c(=O)n1CC)N1CCN(C)C[C@@H](C)C1` [Example 136, 6-chloro-2-((R)-1-((R)-4,6-dimethyl-1,4-diazepan-1-yl)butyl)-3-ethyl-7-fluoroquinazolin-4(3H)-one], the Ki [1] was < 500 nM and the Ki (Human σ1 receptor) was 500 to 1000 nM.

In the case of `CCC[C@@H](c1nc2cc(F)c(Cl)cc2c(=O)n1CC)N1CCN(C)C[C@H](C)C1` [Example 137, 6-chloro-2-((S)-1-((S)-4,6-dimethyl-1,4-diazepan-1-yl)butyl)-3-ethyl-7-fluoroquinazolin-4(3H)-one], the Ki [1] is reported as > 5000 nM and the Ki (Human σ1 receptor) is reported as 500 to 1000 nM.

For `CCC[C@@H](c1nc2cc(F)c(Cl)cc2c(=O)n1CC)N1CCN(C)C[C@@H](C)C1` [Example 138, 6-chloro-2-((S)-1-((R)-4,6-dimethyl-1,4-diazepan-1-yl)butyl)-3-ethyl-7-fluoroquinazolin-4 (3H)-one], the Ki [1] was > 5000 nM and the Ki (Human σ1 receptor) was 500 to 1000 nM.

`CCC[C@H](c1nc2ccc(Br)cc2c(=O)n1CC)N1CCCN[C@H](C)C1` [Example 139, 6-Bromo-3-ethyl-2-((R)-1-((R)-3-methyl-1,4-diazepan-1-yl)butyl)quinazolin-4(3H)-one] was tested, and the Ki [1] was < 500 nM and the Ki (Human σ1 receptor) was 500 to 1000 nM.

In the case of `CCC[C@@H](c1nc2ccc(Br)cc2c(=O)n1CC)N1CCCN[C@@H](C)C1` [Example 140, 6-bromo-3-ethyl-2-((S)-1-((S)-3-methyl-1,4-diazepan-1-yl)butyl)quinazolin-4(3H)-one], the Ki [1] is reported as > 5000 nM and the Ki (Human σ1 receptor) is reported as > 1000 nM.

For `CCC[C@@H](c1nc2ccc(Br)cc2c(=O)n1CC)N1CCCN[C@H](C)C1` [Example 141, 6-bromo-3-ethyl-2-((S)-1-((R)-3-methyl-1,4-diazepan-1-yl)butyl)quinazolin-4(3H)-one], the Ki [1] was > 5000 nM and the Ki (Human σ1 receptor) was 500 to 1000 nM.

With `CCC[C@H](c1nc2ccc(Br)cc2c(=O)n1CC)N1CCCN[C@@H](C)C1` [Example 142, 6-bromo-3-ethyl-2-((R)-1-((S)-3-methyl-1,4-diazepan-1-yl)butyl)quinazolin-4(3H)-one] the Ki [1] was < 500 nM and the Ki (Human σ1 receptor) was > 1000 nM.

With `CCC[C@H](c1nc2ccc(F)cc2c(=O)n1CC)N1CCCN[C@H](C)C1` [Example 143, 3-Ethyl-6-fluoro-2-((R)-1-((R)-3-methyl-1,4-diazepan-1-yl)butyl)quinazolin-4(3H)-one] the Ki [1] was < 500 nM and the Ki (Human σ1 receptor) was < 500 nM.

With `CCC[C@@H](c1nc2ccc(F)cc2c(=O)n1CC)N1CCCN[C@@H](C)C1` [Example 144, 3-ethyl-6-fluoro-2-((S)-1-((S)-3-methyl-1,4-diazepan-1-yl)butyl)quinazolin-4(3H)-one] the Ki [1] was > 5000 nM and the Ki (Human σ1 receptor) was > 1000 nM.

For `CCC[C@H](c1nc2ccc(F)cc2c(=O)n1CC)N1CCCN[C@@H](C)C1` [Example 145, 3-ethyl-6-fluoro-2-((R)-1-((S)-3-methyl-1,4-diazepan-1-yl)butyl)quinazolin-4(3H)-one], the Ki [1] was < 500 nM and the Ki (Human σ1 receptor) was > 1000 nM.

In the case of `CCC[C@@H](c1nc2ccc(F)cc2c(=O)n1CC)N1CCCN[C@H](C)C1` [Example 146], the Ki [1] is reported as > 5000 nM and the Ki (Human σ1 receptor) is reported as > 1000 nM.

`CCC[C@H](c1nc2ccc(Cl)cc2c(=O)n1C)N1CCCN[C@H](C)C1` [Example 147, 6-Chloro-3-methyl-2-((R)-1-((R)-3-methyl-1,4-diazepan-1-yl)butyl)quinazolin-4(3H)-one] was tested, and the Ki [1] was < 500 nM and the Ki (Human σ1 receptor) was < 500 nM.

For `CCC[C@H](c1nc2ccc(Cl)cc2c(=O)n1C)N1CCCN[C@@H](C)C1` [Example 148, 6-chloro-3-methyl-2-((R)-1-((S)-3-methyl-1,4-diazepan-1-yl)butyl)quinazolin-4(3H)-one], the Ki [1] was < 500 nM and the Ki (Human σ1 receptor) was > 1000 nM.

`CCC[C@@H](c1nc2ccc(Cl)cc2c(=O)n1C)N1CCCN[C@@H](C)C1` [Example 149, 6-chloro-3-methyl-2-((S)-1-((S)-3-methyl-1,4-diazepan-1-yl)butyl)quinazolin-4(3H)-one] was tested, and the Ki [1] was > 5000 nM and the Ki (Human σ1 receptor) was < 500 nM.

For `CCC[C@@H](c1nc2ccc(Cl)cc2c(=O)n1C)N1CCCN[C@H](C)C1` [Example 150, 6-chloro-3-methyl-2-((S)-1-((R)-3-methyl-1,4-diazepan-1-yl)butyl)quinazolin-4(3H)-one], the Ki [1] was > 5000 nM and the Ki (Human σ1 receptor) was 500 to 1000 nM.

`CCC[C@H](c1nc2ccc(Br)cc2c(=O)n1CC)N1CCCN(C)CC1` [Example 151, (R)-6-Bromo-3-ethyl-2-(1-(4-methyl-1,4-diazepan-1-yl)butyl)quinazolin-4(3H)-one] was tested, and the Ki [1] was < 500 nM and the Ki (Human σ1 receptor) was < 500 nM.

For `CCC[C@@H](c1nc2ccc(Br)cc2c(=O)n1CC)N1CCCN(C)CC1` [Example 152, (S)-6-bromo-3-ethyl-2-(1-(4-methyl-1,4-diazepan-1-yl)butyl)quinazolin-4(3H)-one], the Ki [1] was > 5000 nM and the Ki (Human σ1 receptor) was 500 to 1000 nM.

`CCC[C@H](c1nc2ccc(Br)cc2c(=O)n1CC)N1CCCN(CC)CC1` [Example 153, (R)-6-Bromo-3-ethyl-2-(1-(4-ethyl-1,4-diazepan-1-yl)butyl)quinazolin-4(3H)-one] was tested, and the Ki [1] was < 500 nM and the Ki (Human σ1 receptor) was < 500 nM.

For `CCC[C@@H](c1nc2ccc(Br)cc2c(=O)n1CC)N1CCCN(CC)CC1` [Example 154, (S)-6-bromo-3-ethyl-2-(1-(4-ethyl-1,4-diazepan-1-yl)butyl)quinazolin-4(3H)-one], the Ki [1] was > 5000 nM and the Ki (Human σ1 receptor) was < 500 nM.

With `CCC[C@H](c1nc2cc(F)c(Br)cc2c(=O)n1CC)N1CCCN(C)CC1` [Example 155, (R)-6-Bromo-3-ethyl-7-fluoro-2-(1-(4-methyl-1,4-diazepan-1-yl)butyl)quinazolin-4(3H)-one] the Ki [1] was > 5000 nM and the Ki (Human σ1 receptor) was > 1000 nM.

With `CCC[C@@H](c1nc2cc(F)c(Br)cc2c(=O)n1CC)N1CCCN(C)CC1` [Example 156, (S)-6-bromo-3-ethyl-7-fluoro-2-(1-(4-methyl-1,4-diazepan-1-yl)butyl)quinazolin-4(3H)-one] the Ki [1] was > 5000 nM and the Ki (Human σ1 receptor) was 500 to 1000 nM.

`CCC[C@H](c1nc2cc(F)c(Br)cc2c(=O)n1CC)N1CCCNCC1` [Example 157, (R)-2-(1-(1,4-Diazepan-1-yl)butyl)-6-bromo-3-ethyl-7-fluoroquinazolin-4(3H)-one] was tested, and the Ki [1] was < 500 nM and the Ki (Human σ1 receptor) was > 1000 nM.

For `CCC[C@@H](c1nc2cc(F)c(Br)cc2c(=O)n1CC)N1CCCNCC1` [Example 158, (S)-2-(1-(1,4-diazepan-1-yl)butyl)-6-bromo-3-ethyl-7-fluoroquinazolin-4(3H)-one], the Ki [1] was > 5000 nM and the Ki (Human σ1 receptor) was > 1000 nM.

For `CCC[C@H](c1nc2ccc(Cl)cc2c(=O)n1CCC)N1CCCN(C)CC1` [Example 159, (R)-6-Chloro-2-(1-(4-methyl-1,4-diazepan-1-yl)butyl)-3-propylquinazolin-4(3H)-one], the Ki [1] was < 500 nM and the Ki (Human σ1 receptor) was < 500 nM.

For `CCC[C@@H](c1nc2ccc(Cl)cc2c(=O)n1CCC)N1CCCN(C)CC1` [Example 160, (S)-6-chloro-2-(1-(4-methyl-1,4-diazepan-1-yl)butyl)-3-propylquinazolin-4(3H)-one], the Ki [1] was > 5000 nM and the Ki (Human σ1 receptor) was > 1000 nM.
